Where two headings read alike, the source gives them in different places.
How the values were obtained:
[1] = system: Molt-4 cells; test: Cell viability assay, Molt-4 cells; type: cell-based, human; conditions: 72 hour exposure prior to viability
[2] = system: SUP-B15 cells; test: Cell viability assay, SUP-B15 cells; type: cell-based, human; conditions: 72 hour exposure prior to viability
[3] = system: B6 ALL cells; test: Cell viability assay, B6 ALL cells; type: cell-based, mouse
[4] = system: DG75 cells; test: Cell viability assay, DG75 cells; type: cell-based, human; conditions: 72 hour exposure prior to viability
[5] = system: CCRF-CEM cells; test: Cell viability assay, CCRF-CEM cells; type: cell-based, human; conditions: 72 hour exposure prior to viability
[6] = system: Ara-C resistant B6 ALL cells; test: C57Bl/6 mice injected with Ara-C resistant B6 ALL cells, survival; type: in vivo; conditions: control median 12 days
Procedure: (§1) Committee approved all mouse experiments. […] Control animals were injected with PBS.
A) Cell viability assays.

[7] = system: Ara-C resistant B6 ALL cells; test: Cell viability assay, Ara-C resistant B6 ALL lines; conditions: Mus musculus, 72 h, read-out: average IC50 of cytarabine, relapsed (resistant) cells
Procedure: (§3) All human cell lines were maintained in RPMI media (Gibco, Carlsbad, Calif.) supplemented with 10% FBS, penicillin and streptomycin. Cells were grown at 37° C. with 5% CO2. Viability assays were done using the Cell Titer-Glo assay (Promega, Madison, Wis.) according to the manufacturer's protocol or by Trypan blue exclusion assay using the Countess cell counting system (Invitrogen, Carlsbad, Calif.). All murine cells were maintained in stem cell media (40% DMEM, 40% IMDM, 20% FBS, supplemented with murine SCF to 10 ng/ml, murine IL6 to 2 ng/ml, and murine IL3 to 0.4 ng/ml).
When the mice were moribund bilateral femur cells from 4 separate animals were harvested and they were placed in culture.

[8] = system: DG-75 tumors; test: DG75 xenograft in nude mice; conditions: 300 mg/kg tail vein QOD for 5 doses
Procedure: (§4) Committee approved all mouse experiments. Luciferase-tagged leukemia cells were transplanted into 6- to 8-wk-old C57Bl/6 or Balb/c recipient mice by tail-vein injection of 1×10^6 viable cells. Mice were monitored by bioluminescent imaging on day 6. Imaging was performed using an IVIS100 imaging system (Caliper LifeSciences, Hopkinton, Mass.). Mice were injected with 150 mg/kg D-Luciferin (Gold Biotechnology, St. Louis, Mo.), anesthetized with isoflurane, and imaged for 2 min. For the xenograft studies 6-8-wk old nude mice were subcutaneously injected with 2×10^6 cells mixed with 200 μl matrigel (BD Bioscience). Chemotherapy was initiated upon detection of clear signals or reproducibly palpable flank tumors. Mice were treated with 300 mg/kg FdUMP[10] by tail vein injection. Control animals were injected with PBS. Repeat luciferase imaging or tumor volume measurements were performed following treatment.
(§5) B) Survival of Balb/c mice injected with Baf-3 cells expressing the T315I variant of BCR-ABL treated with saline or F10 at 300 mg/kg QOD ×4 doses as indicated. […] D) Volumes of Jurkat tumors in nude mice treated with saline or F10 at 300 mg/kg QOD ×5 doses as indicated. […] F) Survival of all xenograft bearing mice from time of injection treated with saline or F10 at 300 mg/kg QOD ×5 doses as indicated. All p values were derived from log rank tests. […]

[9] = target: T1, TS (Homo sapiens, UniProt P04818); test: TS catalytic activity in treated Jurkat cells; type: cell-based
T1 construct: Jurkat cells were exposed to 10 nM FdUMP[10] or 100 nM 5-FU for the indicated time, lysed and assayed for TS activity; endogenous in cells; host or cells: Jurkat
Procedure: Cells were plated at 1.5×10^6 cells in 100 mm2 plates and grown overnight in RPMI 1640 medium with 20% FBS. Cells were exposed to the indicated drug for 8, 16, 24, or 48 hours. Cells were then harvested in 25 mM Tris-HCl, pH 7.4 with Complete Protease Inhibitor Cocktail (Roche), put through 2 freeze/thaw cycles, and vortexed. The lysates were centrifuged at 10,000×g for 10 minutes at 4° C. TS assays were performed in a final volume of 200 μl containing 75 μM 5,10 methylene tetrahydrofolate in 0.5 M NaOH (Schircks Laboratories, Switzerland), 10 μM dUMP, 200,000 dpm of 3H-dUMP (Moravek Biochemicals), 100 μM 2-mercaptoethanol, and 25 mM KH2PO4, pH 7.4. Cell lysate (400 μg of protein) was added to the reaction buffer. Reactions were incubated at 37° C. for 30 minutes and stopped by addition of 100 μl of 20% TCA, incubated for 5 minutes on ice. 200 μL of activated charcoal solution (10 g activated charcoal, 0.25 g BSA, 0.25 g dextran sulfate, in 100 ml of water) was added, vortexed and maintained at room temperature for 10 minutes. Reactions were centrifuged at 10,000×g for 30 minutes. 200 μL aliquots of the supernatant were read by scintillation counting. All reactions were repeated a minimum of three times.
(A) TS inhibition assay. Jurkat cells were exposed to 10 nM FdUMP[10] or 100 nM 5-FU for the indicated time, lysed and assayed for TS activity. Activity is plotted as percentage of control. […]

[10] = system: Jurkat tumors; test: Jurkat xenograft in nude mice; conditions: 300 mg/kg tail vein QOD for 5 doses
Procedure: as §4, §5

[11] = system: SUP-B15 tumors; test: SUP-B15 xenograft in nude mice; conditions: 300 mg/kg tail vein QOD for 5 doses
Procedure: as §4, §5

[12] = system: SUP-B15 ALL cells; test: Annexin V / PI apoptosis assay, SUP-B15 cells; type: cell-based, human
Procedure: (§2) Cells were seeded in 6-well μ[…] in 3 mls, grown for 2 days and treated with the indicated drug. After centrifugation and washing in cold PBS cells were stained with PI (Sigma Aldrich, St. Louis, Mo.) and APC-conjugated Annexin V in a binding buffer (0.1 M Hepes (pH 7.4), 1.4 M NaCl, and 25 mM CaCl2 solution) (BD Pharmingen, San Jose, Calif.) according to the manufacturer's protocol. Flow cytometric analysis was conducted on a Accuri flow cytometer (BD Biosciences). […] FIG. 1 A) Flow cytometry of Annexin V assay. […] B) Quantitation of non-apoptotic cells.

[13] = system: Baf-3 cells expressing the T315I variant of BCR-ABL; test: Syngeneic Baf-3 BCR-ABL T315I model in Balb/c mice, survival; type: in vivo; conditions: 300 mg/kg tail vein QOD x4 doses; p=0.0013
Procedure: as §1

[14] = system: panel of human and mouse ALL cell lines; conditions: for IC50: 72 hours
Procedure: as §3
In order to assess the activity of F10 a panel of human and mouse ALL cell lines were exposed to a titration of F10, 5-FU, cytarabine or doxorubicin. After 72 hours viability was assessed and the IC50 values for each was determined.

[15] = system: B6 ALL cells; test: Annexin V / PI apoptosis assay, B6 ALL cells; type: cell-based, mouse
Procedure: as §2

[16] = Toxicology study in normal Balb/c mice (histopathology of bone marrow and GI tract)
Procedure: Normal Balb/c mice were treated with identical dose, schedule and route of each drug as in the efficacy studies (i.e. Day 1, 3, 5 and 7). 72 hours after the last dose, animals were sacrificed, bilateral femoral cells harvested and organs fixed in 10% neutral buffered formalin followed by routine tissue processing and sectioning for hematoxylin and eosin staining. Slides were then reviewed by a veterinary pathologist using a Nikon Eclipse 50i light microscope. Photographs of tissues were taken using the NIS Elements D3.10 camera and software system.
Animals were sacrificed 72 hours following their last dose. BM=bone marrow, LI=large intestine, SI=small intestine.
The 5-FU dose was chosen as it delivers the exact same amount of fluoropyrimidine as the F10 dosed at 300 mg/kg. GI tract and bone marrow slides were analyzed by a veterinary pathologist blinded to treatment.

[17] = system: SUP-B15, Jurkat, and DG75 human ALL cell lines in xenograft models; test: All xenograft bearing mice (SUP-B15, Jurkat, DG75), survival and eradication; conditions: 300 mg/kg QOD for 5 doses
Procedure: as §4, §5

[18] = system: Jurkat cells, a human T cell ALL line; test: Sensitivity of Jurkat cells to F10; type: cell-based
Description: One pathway that the inventors of the present invention believed could be exploited was the increased uptake of oligonucleotides by ALL cells. F10 is a poison deoxy-oligonucleotide that is a 10mer of the TS inhibitory 5-FU metabolite, 5-fluoro-2′-deoxyuridine-5′-O-monophosphate (FdUMP[10]) SEQ ID NO: 1. […] Activity of these targets is important for any replicating cell regardless of driving mutations. […] In this invention, the activity, toxicity and uptake of F10 in preclinical models of ALL was determined.

[19] = system: B6 ALL cells; test: Syngeneic B6 ALL model in C57Bl/6 mice, survival; conditions: 300 mg/kg tail vein QOD
Procedure: as §4
B) Survival of Balb/c mice injected with Baf-3 cells expressing the T315I variant of BCR-ABL treated with saline or F10 at 300 mg/kg QOD ×4 doses as indicated. […] D) Volumes of Jurkat tumors in nude mice treated with saline or F10 at 300 mg/kg QOD ×5 doses as indicated. […] F) Survival of all xenograft bearing mice from time of injection treated with saline or F10 at 300 mg/kg QOD ×5 doses as indicated. All p values were derived from log rank tests.
In this system Baf-3 cells were infected with an MSCV based virus that expressed the T315 variant of BCR-ABL seen in many cases of relapsed Philadelphia chromosome positive ALL^8. […] Nude mice were subcutaneously injected with 2×10^6 cells in matrigel and once a reproducibly palpable tumor was established were treated with F10 at 300 mg/kg or saline by tail vein injection QOD for 5 doses.

[20] = system: B6 ALL cells; test: Engraftment of treated B6 ALL cells in syngeneic C57Bl/6 mice; type: in vivo, mouse; conditions: cells treated with 50 nM F10 for 24 hours prior to injection
Description: B) Engraftment of human HSCs.

[21] = mouse, in vivo
[22] = Mus musculus, 72 hour exposure prior to viability, read-out: IC50 B6 ALL
[23] = 72 hour exposure prior to viability, read-out: IC50 B6 ALL
[24] = F10 300 mg/kg QOD x4, sacrificed 72 hours after last dose
[25] = 5-FU 121 mg/kg QOD x4, sacrificed 72 hours after last dose

T1 sequence (P04818 whole entry): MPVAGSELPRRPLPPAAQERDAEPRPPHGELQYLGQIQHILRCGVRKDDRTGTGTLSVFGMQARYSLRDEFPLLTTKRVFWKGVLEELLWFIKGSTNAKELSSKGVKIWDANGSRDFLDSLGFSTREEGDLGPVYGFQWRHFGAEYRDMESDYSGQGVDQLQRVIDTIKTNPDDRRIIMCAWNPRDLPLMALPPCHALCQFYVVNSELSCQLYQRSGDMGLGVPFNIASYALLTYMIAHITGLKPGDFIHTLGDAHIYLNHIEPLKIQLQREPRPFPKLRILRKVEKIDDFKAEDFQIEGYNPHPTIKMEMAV

COc1cccc2c1C(=O)c1c(O)c3c(c(O)c1C2=O)C[C@@](O)(C(=O)CO)C[C@@H]3O[C@H]1C[C@H](N)[C@H](O)[C@H](C)O1 [Doxorubicin] showed an IC50 ([1]; Homo sapiens, MOLT-4) of 19.5 nM, an IC50 ([2]; Homo sapiens, SUP-B15) of 19.4 nM and an IC50 [3, 22] of 4.84 nM. For the same molecule, the IC50 ([4]; Homo sapiens, DG-75) was 150 nM and the IC50 ([5]; Homo sapiens, CCRF-CEM) was 36.3 nM.

In the case of Nc1ccn([C@@H]2O[C@H](CO)[C@@H](O)[C@@H]2O)c(=O)n1 [Cytarabine], the IC50 ([1]; Homo sapiens, MOLT-4) is reported as 10.6 nM, the IC50 [3, 22] is reported as 11.9 nM and the IC50 ([3]; Mus musculus, parental B6 ALL, 72 hours, read-out: IC50 of cytarabine, parental cell line) is reported as 11 nM. For the same molecule, the IC50 ([4]; Homo sapiens, DG-75) was 64.3 nM, the IC50 ([5]; Homo sapiens, CCRF-CEM) was 8.32 nM and the “survival compared with control” value ([6]; cytarabine 100 mg/kg QOD) was “lived only a day longer”. For the same molecule, the IC50 [7] was 23 nM.

For FdUMP[10] [F10], the tumor volume response [8] was “tumor regression”, the “TS inhibition (activity as percentage of control)” value ([9]; 10 nM F10, 8-48 hours) was “profound and prolonged TS inhibition” and the tumor volume response [10] was “tumor regression”. For the same molecule, the tumor volume response [11] was “tumor regression”, the IC50 [1] was 1.88 nM and the “induction of apoptosis (Annexin V and PI positive cells)” value ([12]; 1 nM F10, 72 hour exposure) was “robust induction of Annexin V and PI positive cells”. The survival vs saline [13] was “significant prolongation of survival”, the IC50 [2] was 0.21 nM and the IC50 [3, 23] was 0.07 nM. The “potency relative to 5-FU” value [14] was “more than 1000 times”, the IC50 ([14]; read-out: average IC50 value for all cell lines, average over all cell lines) was 1.48 nM and the IC50 ([14]; read-out: range of IC50 values over all cell lines, range over cell lines) was 0.07 to 5.4 nM. The “induction of apoptosis (Annexin V and PI positive cells)” value ([15]; 1 nM F10, 72 hour exposure) was “robust induction of Annexin V and PI positive cells”, the IC50 [4] was 4.12 nM and the “GI tract toxicity (histopathology)” value [16, 24] was “only a mild increase in apoptotic cells”. For the same molecule, the “bone marrow toxicity (histopathology)” value [16, 24] was “only minimal marrow toxicity”, the tumor eradication ([17]; in several cases) was “complete eradication of the tumor” and the “survival of all xenograft bearing mice vs saline” value ([17]; p=0.0098) was “significant survival advantage”. The “sensitivity of Jurkat cells” value [18] was “low nanomolar sensitivity”, the IC50 [5] was 1.14 nM and the “median OS” value ([19]; 4 treatments, control 15 days, p<0.0001) was 18 days. The “median OS” value ([19]; 6 treatments, p=0.0009) was 24 days, the “median OS” value ([19]; 9 treatments, p=0.0001) was 30 days and the median survival ([6]; F10 300 mg/kg QOD) was 31 days. The “engraftment of B6 ALL cells (bioluminescence)” value [20] was “significantly reduced engraftment” and the “body weight of leukemic mice” value [21] was “protected the mice from leukemia induced weight loss”.

For O=c1[nH]cc(F)c(=O)[nH]1 [5-FU, reference compound], the “TS inhibition (activity as percentage of control)” value ([9]; 100 nM 5-FU, compared with 10 nM F10) was “could not be achieved by 5-FU”, the IC50 [1] was 4960 nM and the “induction of apoptosis (non-apoptotic cells vs controls)” value ([12]; 100 nM 5-FU, 72 hours) was “not significantly different from controls”. For the same molecule, the IC50 [2] was 425 nM, the IC50 [3, 23] was 799 nM and the “induction of apoptosis (non-apoptotic cells vs controls)” value ([15]; 100 nM 5-FU, 72 hours) was “not significantly different from controls”. For the same molecule, the IC50 [4] was 14000 nM, the “GI tract toxicity (histopathology)” value [16, 25] was “abundant tissue damage and immune cell infiltration” and the “bone marrow toxicity (histopathology)” value [16, 25] was “pancytopenic and hemorrhagic marrow”. The IC50 [5] was greater than 50000 nM.

— patent US20170080009A1, “Oligonucleotide Compositions and Methods for Treating Acute Lymphoblastic Leukemia” (priority 2014, published 2017)
